From publication PMC11127330, “Repurposing harmaline as a novel approach to reverse tmexCD1-toprJ1-mediated tigecycline resistance against klebsiella pneumoniae infections” (Microbial Cell Factories, 2024)

Biological target: T1, TMexD1 (Klebsiella pneumoniae, UniProt A0A411AKL6)
T1 construct: GST fusion from pGEX-6P-1-tmexD1 (BamHI/XhoI), E. coli BL21(DE3); plasmid-borne gene of tmexCD1-toprJ1
Experiment: circular dichroism, secondary structure change
Details: harmaline 128 mg/L; 190-260 nm; indirect evidence of binding

T1 sequence (A0A411AKL6 entry or part of it): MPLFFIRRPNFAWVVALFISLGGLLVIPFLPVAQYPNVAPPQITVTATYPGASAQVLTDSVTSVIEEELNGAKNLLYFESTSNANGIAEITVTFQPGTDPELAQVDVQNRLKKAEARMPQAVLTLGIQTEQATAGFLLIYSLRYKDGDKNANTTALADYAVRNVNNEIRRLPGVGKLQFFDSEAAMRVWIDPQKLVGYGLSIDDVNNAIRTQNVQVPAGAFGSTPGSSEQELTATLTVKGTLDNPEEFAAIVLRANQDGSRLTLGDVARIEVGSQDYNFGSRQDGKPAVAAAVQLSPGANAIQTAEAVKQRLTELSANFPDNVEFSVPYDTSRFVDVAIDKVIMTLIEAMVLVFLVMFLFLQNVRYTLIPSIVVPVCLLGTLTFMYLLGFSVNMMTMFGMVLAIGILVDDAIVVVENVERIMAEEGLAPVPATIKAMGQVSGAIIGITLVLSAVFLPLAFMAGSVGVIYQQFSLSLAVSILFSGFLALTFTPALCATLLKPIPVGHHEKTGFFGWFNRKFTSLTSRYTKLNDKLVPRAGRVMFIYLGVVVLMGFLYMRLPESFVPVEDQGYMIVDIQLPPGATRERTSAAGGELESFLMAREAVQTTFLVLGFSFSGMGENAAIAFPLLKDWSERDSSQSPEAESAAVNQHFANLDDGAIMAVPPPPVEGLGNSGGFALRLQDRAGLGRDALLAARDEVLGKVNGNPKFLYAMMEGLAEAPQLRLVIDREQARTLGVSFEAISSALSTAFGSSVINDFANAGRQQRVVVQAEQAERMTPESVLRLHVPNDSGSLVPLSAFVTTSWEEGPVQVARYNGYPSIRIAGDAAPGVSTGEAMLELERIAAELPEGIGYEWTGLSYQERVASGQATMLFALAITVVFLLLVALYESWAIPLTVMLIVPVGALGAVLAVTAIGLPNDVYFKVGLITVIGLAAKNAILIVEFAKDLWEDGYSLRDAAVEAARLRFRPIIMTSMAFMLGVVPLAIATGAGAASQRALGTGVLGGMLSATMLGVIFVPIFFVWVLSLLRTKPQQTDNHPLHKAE

COc1ccc2c3c([nH]c2c1)C(C)=NCC3 [harmaline]
circular dichroism, secondary structure change: TMexD1 (Fig. 7C and D) and TOprJ1 (Fig. 7E and F) were observed by harmaline treatment
